Data as given in patent publication US20220220152A1, “BIVALENT ANTAGONISTS OF INHIBITORS OF APOPTOSIS PROTEINS” (Hepagene Therapeutics (HK) Limited, priority 2019, published 2022).

Experiments:
[1] = target: T1, XIAP-BIR3 (Homo sapiens, UniProt P98170); test: XIAP-BIR3 fluorescence polarization binding assay; conditions: FP, probe AbuRPFK-5FAM (SM5F) 5 nM, XIAP-BIR3 40 nM, 60 min at 25° C.
T1 construct: XIAP-BIR3; purchased Reaction Biology APT-11-374
Source text: (§1) IAPs are one main cause of cancer development and may result from overexpression of anti-apoptotic proteins. This protocol establishes three binding assays for […] Bir3 domain, cIAP1 and cIAP2 using FP (fluorescence polariation) technology. The fluorescence probe used is a synthetic peptide conjugated to 5-carboxyfluorescein (AbuRPFK-5FAM). The fluorescence polarization value (mP) was detected by Envision, which was used to reflect the binding degree of protein and fluorescent marker.
(§2) • a. Prepare 100 times of the final cpd concentration in appropriate tube and transfer 5 uL cpd to 45 μL 1× reaction buffer with 10% DMSO • b. The final reference cpd concentration is 10000, 3333.3, 1111.1, 370.4, 123.4, 41.2, 13.7, 4.57, 1.52, 0.51, 0.17 and 0 nM. So the 100 times of the concentration is 1000, 333.3, 111.1, 37.04, 12.34, 4.12, […], 0.15, 0.05, 0.017 and 0 μM. The final test cpds concentration is 3333.3, 1111.1, 370.4, 123.4, 41.2, 13.7, 4.57, 1.52, 0.51, 0.17, 0.057 and 0 nM. So the 100 times of the concentration is 333.3, 111.1, 37.04, 12.34, 4.12, […], 0.15, 0.05, 0.017, 0.0057 and […] • c. Add 8 μL/well each dose enzyme to 384 wen microplate (ProxiPlate-384 F Plus, 6008260) using multichannel pipette, prepared in Table 3. • d. Centrifuge at 1000 rpm • e. Add 2 μL/well cpd to 384 well microplate (ProxiPlate-384 F Plus, 6008260) using multichannel pipette, prepared in step a). • f. Centrifuge at 1000 rpm RT, 15 min. • g Start the assay by adding 10 uL/well substrate (prepared in Table 4) to the same 384 wen microplate using multichannel pipette. • h. Centrifuge at 1000 rpm. • i. Cover the assay plate and incubate for 60 min at 25° C. • j. Read on Envision 2104 for mP and plot the IC50s with mP values. • k. Data analysis: IC50s were determined based on a non-linear regression analysis of data collected.

[2] = target: T2, cIAP1-BIR3 (Homo sapiens, UniProt Q13490); test: cIAP1-BIR3 fluorescence polarization binding assay; conditions: FP, probe AbuRPFK-5FAM (SM5F) 5 nM, cIAP1-BIR3 15 nM, 60 min at 25° C.
T2 construct: cIAP1-BIR3; purchased Reaction Biology APT-11-370
Source text: as §1, §2

[3] = target: T3, cIAP2-BIR3 (Homo sapiens, UniProt Q13489); test: cIAP2-BIR3 fluorescence polarization binding assay; conditions: FP, probe AbuRPFK-5FAM (SM5F) 5 nM, cIAP2-BIR3 80 nM, 60 min at 25° C.
T3 construct: cIAP2-BIR3; purchased Reaction Biology APT-11-372
Source text: as §1, §2

T2 sequence (Q13490 253-363 limits assumed): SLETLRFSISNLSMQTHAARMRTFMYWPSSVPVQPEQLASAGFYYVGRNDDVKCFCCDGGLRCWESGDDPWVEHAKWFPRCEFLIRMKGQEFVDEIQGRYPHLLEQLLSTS
T3 sequence (Q13489 238-349 limits assumed): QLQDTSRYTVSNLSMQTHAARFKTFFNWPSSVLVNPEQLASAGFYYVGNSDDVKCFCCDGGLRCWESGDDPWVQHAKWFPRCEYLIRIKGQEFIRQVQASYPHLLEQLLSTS
T1 sequence (P98170 241-356 limits assumed): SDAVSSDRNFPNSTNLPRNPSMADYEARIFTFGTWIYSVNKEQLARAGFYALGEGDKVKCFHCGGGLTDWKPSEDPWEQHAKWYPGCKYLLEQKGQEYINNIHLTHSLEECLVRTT

| SMILES | IC50 [1] [nM] | IC50 [2] [nM] | IC50 [3] [nM] |
| --- | --- | --- | --- |
| CN[C@@H](C)C(=O)N[C@H](C(=O)N1CCC[C@H]1C(=O)N[C@@H]1CCCc2c1cccc2N1CC2CN(c3cccc4c3CCC[C@H]4NC(=O)[C@@H]3CCCN3C(=O)[C@@H](NC(=O)[C@H](C)NC)C3CCCCC3)CC2C1)C1CCCCC1 (stereo partly drawn) [Compound VIII, (2S)-1-[(2S)-2-cyclohexyl-2-[(2S)-2-(methylamino)propanamido]acetyl]-N-[(1R)-5-[5-[(5R)-5-[(2S)-1-[(2S)-2-cyclohexyl-2-[(2S)-2-(methylamino)propanamido]acetyl]pyrrolidine-2-amido]-5,6,7,8-tetrahydronaphthalen-1-yl]-hexahydropyrrolo[3,4-c]pyrrol-2-yl]-1,2,3,4-tetrahydmnaphthalen-1-yl]pyrrolidine-2-carboxamide] | 10 to 100 | 1 to 10 | 1 to 10 |
| CN[C@@H](C)C(=O)N[C@H](C(=O)N1CCC[C@H]1C(=O)N[C@@H]1CCCc2c(OCC#CCOc3cccc4c3CCC[C@H]4NC(=O)[C@@H]3CCCN3C(=O)[C@@H](NC(=O)[C@H](C)NC)C3CCCCC3)cccc21)C1CCCCC1 [Compound IV-B, (S)-1-((S)-2-Cyclohexyl-2-((S)-2-(methylamino)propanamido)acetyl)-N—((R)-5-(4-((R)-5-((S)-1-((S)-2-cyclohexyl-2-((S)-2-(methylamino)propanamido)acetyl)pyrrolidine-2-carboxamido)-5,6,7,8-tetrahydronaphthalen-1-yloxy)but-2-ynyloxy)-1,2,3,4-tetrahydronaphthalen-1-yl)pyrrolidine-2-carboxamide] | 10 to 100 | 1 to 10 | 10 to 100 |
| CN[C@@H](C)C(=O)N[C@H](C(=O)N1CCC[C@H]1C(=O)N[C@@H]1CCCc2c1cccc2N1CCN(c2cccc3c2CCC[C@H]3NC(=O)[C@@H]2CCCN2C(=O)[C@@H](NC(=O)[C@H](C)NC)C2CCCCC2)CC1)C1CCCCC1 [Compound VIII-C, (2S,2'S)—N,N′-((1R,1′R)-piperazine-1,4-diylbis(1,2,3,4-tetrahydronaphthalene-5,1-diyl))bis(1-((S)-2-cyclohexyl-2-((S)-2-(methylamino)propanamido)acetyl)pyrrolidine-2-carboxamide)] | – | 1 to 10 | – |
| CN[C@@H](C)C(=O)N[C@H](C(=O)N1CCC[C@H]1C(=O)N[C@@H]1CCCc2c1cccc2N1CCN(c2cccc3c2CCC[C@H]3NC(=O)[C@@H]2CCCN2C(=O)[C@@H](NC(=O)[C@H](C)NC)C(C)C)CC1)C(C)C [VIII-F, (2S,2'S)—N,N′-((1R,1′R)-piperazine-1,4-diylbis(1,2,3,4-tetrahydonaphthalene-5,1-diyl))bis(1-(methyl-L-alanyl-L-valyl)pyrrolidine-2-carboxamide)] | – | 1 to 10 | – |
| CN[C@@H](C)C(=O)N[C@H](C(=O)N1CCC[C@H]1C(=O)N[C@@H]1CCCc2c1cccc2N1CCN(c2cccc3c2CCC[C@H]3NC(=O)[C@@H]2CCCN2C(=O)[C@@H](NC(=O)[C@H](C)NC)C(C)(C)C)CC1)C(C)(C)C [Compound VIII-D, (2S,2′S)—N,N′-((1R,1′R)-piperazine-1,4-diylbis(1,2,3,4-tetrahydronaphthalene-5,1-diyl))bis(1-((S)-3,3-dimethyl-2-((S)-2-(methylamino)propanamido)butanoyl)pyrolidine-2-carboxamide)] | – | 1 to 10 | – |
| CC[C@H](NC(=O)[C@H](C)NC)C(=O)N1CCC[C@H]1C(=O)N[C@@H]1CCCc2c1cccc2N1CCN(c2cccc3c2CCC[C@H]3NC(=O)[C@@H]2CCCN2C(=O)[C@H](CC)NC(=O)[C@H](C)NC)CC1 [VIII-E, (2S,2'S)—N,N′-((1R,1′R)-piperazine-1,4-diylbis(1,2,3,4-tetrahydonaphthalene-5,1-diyl))bis(1-((S)-2-((S)-2-(methylamino)propanamido)butanoyl)pyrrolidine-2-carboxamide)] | – | 1 to 10 | – |
